Test in all cases: DTP human tumour cell line panel, 48 h
In test [1] the test system is KM20L2 colon.
Test [2] concerns LXFL 529 NSCLC.
Test [3] deals with SNB-78 CNS.
Test [4] has as its system DMS 114 small cell lung.
The subject of test [5] is DMS 273 small cell lung.
Test [6] deals with M19-MEL melanoma.
Test [7] concerns TK-10 renal.
The subject of test [8] is HOP-18 NSCLC.
Test [9] has as its system XF 498 CNS.
For test [10], the system named is RXF-631 renal.
In test [11] the test system is DLD-1 colon.

A word on the TGI: it is the concentration at which net growth stops. A higher TGI goes with less potent growth arrest.

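Cells were grown in 96-well plates and exposed to each compound for 48 hours at five concentrations; endpoints were interpolated linearly between bracketing concentrations, or set to the highest concentration if not reached. TGI: concentration producing complete growth inhibition.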

As to `CC1=CC(=O)NP(=O)(Oc2ccc(C)cc2)N1` (stereo not drawn), the total growth inhibition concentration (TGI) in [1], in test [2], in [3], in test [4], in [5] and in test [6] was above 100 µM throughout. The TGI in [7], in test [8], in test [9], in [10] and in test [11] was above 100 µM in each case.
On to `COc1cc(C2c3cc4c(cc3[C@H](OCCN(C)C)[C@@H]3COC(=O)C23)OCO4)cc(OC)c1O` (stereo partly drawn), for which the concentration for total growth inhibition (TGI) in [1] was 2.98 µM; in test [2], 28 µM; in test [3] it was above 93.2 µM; in test [5] it was 1.31 µM; in test [6] it was 4.79 µM; in [7], 17.9 µM. The concentration for total growth inhibition (TGI) is above 100 µM in test [8], 1.88 µM in test [9], 1.07 µM in test [10] and 3.96 µM in test [11].
Consider `O=C1c2ccccc2S[C@@H](O)[C@@H]2CCCN12`, for which the TGI in test [1], in test [2], in test [3], in test [4], in test [5] and in test [6] was above 100 µM each time. Moreover, the TGI in test [7], in test [8], in [9] and in [11] was above 100 µM throughout.
As to `COc1cc2c(c(OC)c1OC)-c1ccc(SC)c(=O)cc1C(CC(=O)Oc1ccc([N+](=O)[O-])cc1)C2` (stereo not drawn), the TGI is 0.465 µM in [1]; above 34.6 µM in test [2]; 41 µM in test [3]; 0.677 µM in test [4]; above 36.9 µM in test [5]; 36.9 µM in test [6]. Moreover, the TGI in test [7] is above 51.3 µM; in test [8], above 48.9 µM; in test [9] it was 4.73 µM; in [10], 0.052 µM; in test [11], 8.69 µM.
In the case of `CCCN(CCCCC(NC(C)=O)C(=O)NCc1ccccc1)C(=O)N(CCCl)N=O` (stereo not drawn), the total growth inhibition concentration (TGI) in [1], in [2], in [3], in [4], in [5] and in test [6] was above 100 µM each time. The TGI in [7], in test [8], in test [9], in test [10] and in test [11] was above 100 µM in each case.
